Assay results published in paper PMC11881437 (Molecular Medicine, 2025).

How the values were obtained:
Type in all cases: cell-based, human
VEGFA = assay: ELISA of VEGFA secreted into conditioned medium of CES
Procedure: HCT116 CRC cells were grown in ultra-low attachment plate in 3dGROTM Spheroid Medium (Sigma-Aldrich, USA) for 7 days. Spheroids enriched with CSCs were considered as CSC enriched spheres (CESs) or commonly referred as tumorospheres. After 7 days, tumorospheres were subjected to different treatments for 24 h, as per experimental protocol. Media of tumorospheres of all the treatment groups were collected, centrifuged to remove the cell debris and suspended spheres, supernatants were collected and vacuum concentrated. These supernatants were referred as conditioned medium (CM) and were stored at - 20 °C until use. Concentration of the secreted VEGFA was measured using the ELISA kit according to the manufacturer's instruction ([…] BioSystems, India) in CM of CESs as well as in the media of transfected and non-transfected HCT116.

[1] = system: CD44+/CD133+ cell population in HIF1α transfected HCT116 derived tumorospheres; assay: Flow cytometry of CD44+/CD133+ cells in CES from HIF1α transfected HCT116 cells; details: transfected control 28.9%
Procedure: HCT116 cells were transiently transfected with HA-HIF1α-pcDNA3 plasmid (Addgene, USA, Plasmid #18949) by using lipofectamineTM 2000 (Thermo Fisher Scientific, USA) according to the manufacturer’s instructions. After 24 h of transfection, those cells were subjected to various experiments.
Percentages of CD44^+/CD133^+ cell population were determined within tumorospheres and HIF1α positive cells were determined within the CD44^+/CD133^+ cell population using a flow cytometer (BD LSRFortessa™ X-20) and analyzed by BD FACSDiva™ software.

OCT4, NANOG and SOX2 = assay: Western blot of stemness factors in sorted CD44+/CD133+ cells; details: 24 h, compared to 5FU treated group
From the text: CD44^+/CD133^+ cells were isolated using MACS LS column (Miltenyi Biotec, USA) after leveled with CD44 and CD133 antibody conjugated with microbeads (Miltenyi Biotec, USA) by following manufacture’s protocol and subjected to further analysis. Cells expressing both CD44 and CD133 were isolated using magnetic cell sorter (MACS) (Guerriero et al. [2017]).
Protein samples were extracted from treated and untreated cells and subjected to western blot analysis by standard protocol (Bhowmik et al. [2013]). Cells were incubated with Brefeldin A (10 µg/ml) for 4 h before harvesting to determine VEGFA expression. Briefly, cells were lysed with RIPA buffer [50 mmol/L Tris–HCl (pH 7.8), 150 mmol/L NaCl, 1% Triton X-100, 0.1% SDS, 0.5% sodium deoxycholate, and 1 mmol/L EDTA] containing complete protease inhibitor cocktail. Equal amount of protein was electrophoresed on SDS-PAGE and electro transferred onto polyvinylidene difluoride (PVDF) membranes using Bio-Rad mini gel apparatus. […] Signals were detected with the ECL system (Promega, USA) and images were captured in iBright™ CL1500 Imaging System.

| SMILES | VEGFA secreted into CM of CES (VEGFA) | CD44+/CD133+ cell population [1] [%] | protein expression of OCT4, NANOG and SOX2 (OCT4, NANOG and SOX2) |
| --- | --- | --- | --- |
| O=c1[nH]cc(F)c(=O)[nH]1 [5FU, 5-Fluorouracil, reference compound] | stimulated |  |  |
| O=c1cc(-c2ccc(O)c(O)c2)oc2c([C@@H]3O[C@H](CO)[C@@H](O)[C@H](O)[C@H]3O)c(O)cc(O)c12 [Orientin] |  | 16.4 | downregulated |
